The values that follow are results of earlier work, collected in patent publication US11419872B2, “Phosphoinositide 3-kinase and Src inhibitors for treatment of pancreatic cancer” (Innoplexus AG, priority 2020, dated 2022).

The conditions of data set [1]: for adverse events reported: literature reports.
Data set [2] concerns primary tumours and metastasis. The conditions noted are these: pre-clinical animal models.
For data set [3], the system named is glioma cell line LN428.
Data set [4] has as its system gastric cancer cell line MKN-1.
Data set [5] relates to colon carcinoma cell line CT26.
The conditions of data set [6]: in vivo.
The test system of data set [7] is pancreatic cancer cell line PANC-1. The conditions noted are these: PANC-1 (Suzuki et al. 2016).
In data set [8] the test system is glioma cell line U251.
The test system of data set [9] is breast cancer cell line MDA-MB-231.
The test system of data set [10] is human embryonic kidney cell line HEK293.
The target in data set [11] is CYP3A4 (Homo sapiens, UniProt P08684).
Chain of CYP3A4 (P08684 whole entry): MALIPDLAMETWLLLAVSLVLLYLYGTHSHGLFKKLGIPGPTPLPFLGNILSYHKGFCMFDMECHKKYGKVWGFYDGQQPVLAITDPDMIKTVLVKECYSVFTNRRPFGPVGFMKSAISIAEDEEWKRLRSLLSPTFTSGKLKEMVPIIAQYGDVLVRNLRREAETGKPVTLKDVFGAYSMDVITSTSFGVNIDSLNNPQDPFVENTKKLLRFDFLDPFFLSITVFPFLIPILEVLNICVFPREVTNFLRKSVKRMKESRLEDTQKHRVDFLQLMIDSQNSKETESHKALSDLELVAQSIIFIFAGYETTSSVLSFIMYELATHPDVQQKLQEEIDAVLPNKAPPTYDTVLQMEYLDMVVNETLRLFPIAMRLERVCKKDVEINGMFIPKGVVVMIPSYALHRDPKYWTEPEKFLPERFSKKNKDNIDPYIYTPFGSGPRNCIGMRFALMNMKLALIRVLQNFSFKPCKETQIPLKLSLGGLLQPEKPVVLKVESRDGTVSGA

For the compound `COc1c(OCCCN2CCOCC2)ccc2c1N=C(NC(=O)c1cnc(N)nc1)N1CCN=C21` [copanlisib, amino-N-[7-methoxy-8-(3-morpholin-4-ylpropoxy)-2,3-dihydro-1 H-imidazo [1,2-c]quinazolin-5-ylidene] pyrimidine-5-carboxamide], the adverse events reported result in data set [1] is listed as “cardiac disorders, glucose metabolism disorders or neurological disorders”.
As for `Cc1c(O)c(=O)ccn1C` [deferiprone], the adverse events reported entry in data set [1] was “joint pain, stiffness or swelling”.
Regarding `O=C(Cc1ccc(-c2ccc(OCCN3CCOCC3)cc2)cn1)NCc1ccccc1` [KX2-391, N-benzyl-2-[5-[4-(2-morpholin-4-ylethoxy)phenyl]pyridin-2-yl] acetamide], the “growth of primary tumours and metastasis” value in data set [2] was “inhibits the growth of both primary tumours and metastasis”.
By Log P is commonly meant the decadic logarithm of the partition coefficient of the neutral form, usually between octanol and water. Turning to `O=C1CCc2ccc(OCCCCN3CCN(c4cccc(Cl)c4Cl)CC3)cc2N1` [aripiprazole, 7-[4-[4-(2,3-dichlorophenyl)piperazin-1-yl]butoxy]-3,4-dihydro-1Hquinolin-2-one], the “Log P” value was 4.55. In addition, the cell viability result in data set [3] is listed as “reduced the viability”. In addition, the cell viability result in [4] is given as “reduced the viability”. The cell viability result in data set [5] is “reduced the viability”. The elimination half-life result in [6] is reported as “approximately 75 hours”. Further, the “cell death and number of viable cells” value in [7] is “induced cell death and accordingly decreased the number of viable cells”. Further, the cell viability entry in data set [8] is on record as “reduced the viability”. Further, the cell viability result in data set [9] is “reduced the viability”. Besides, the cell viability entry in [10] is recorded as “reduced the viability”.
For the compound `COc1cc(Nc2ncc(F)c(Nc3ccc4c(n3)N(COP(=O)(O)O)C(=O)C(C)(C)O4)n2)cc(OC)c1OC` [fostamatinib], the adverse events reported entry in data set [1] was “white blood cell disorder, hematological and hepatobiliary disorders”.
Turning to `C[C@H](Nc1ncnc2[nH]cnc12)c1cc2cccc(Cl)c2c(=O)n1-c1ccccc1` [duvelisib, 8-Chloro-2-phenyl-3-[(1S)-1-(3H-purin-6-ylamino)ethyl]-1(2H)-isoquinolinone], the adverse events reported entry in data set [1] was “diarrhea or colitis, cutaneous reactions, infections and pneumonitis”. Also, the safety profile result in [1] (patients with advanced hematologic malignancies) was “manageable safety profile”. For the same compound, the primary metabolising enzyme entry in [11] is recorded as “primarily metabolized by CYP3A4”.
For `CC[C@H](Nc1ncnc2[nH]cnc12)c1nc2cccc(F)c2c(=O)n1-c1ccccc1` [Idealisib, 5-fluoro-3-phenyl-2-[(1S)-1-(7H-purin-6-ylamino)propyl] quinazolin-4-one], the adverse events reported result in data set [1] was “pneumonitis, hematological disorder, diarrhea and colitis”.
